{"source": "patent US20250145715A1", "about": "“B7-H3 TARGETING FUSION PROTEINS AND METHODS OF USE THEREOF” (GT Biopharma, Inc., priority 2021, published 2025)", "format_in_all_cases": "cell-based, human", "key": {"[1]": {"tested_on": "myeloma cells (RPMI-8226, U266, MM1S, H929)", "assay": "IncuCyte Zoom NK cell killing of myeloma cells", "source_text": "(§1) FIGS. 7A-7B illustrate the ability of peripheral blood NK cells with or without B7-H3-TriKE to kill myeloma cells in live imaging IncuCyte Zoom assays. FIG. 7A is a graph showing the effects with effector:target (E:T) ratios of 2:1 and 4:1 on MM1S cells. FIG. 7B is a graph showing the effects with effector:target (E:T) ratios of 2:1 and 4:1 on U266 cells.\nas §1, with “8A-8D” for “7A-7B”, “8A is a graph showing the effects with effector:target (E:T) ratios of 2:1 and 4:1 on H929 cells. FIG. 8B” for “7A”, “8C is a graph showing the effects with effector:target (E:T) ratios of 2:1 and 4:1 on RPMI-8226 cells. FIG. 8D” for “7B”\n(§2) The ability of peripheral blood NK cells with or without B7-H3-TriKE to kill myeloma cells was compared in live imaging IncuCyte Zoom assays with escalating doses of TriKE. Maximal killing occurred with 3 nM concentration."}, "[2]": {"tested_on": "HNSCC cell lines (Cal27 trio, Cal33 trio)", "assay": "NK cell CD107a / IFN-γ flow cytometry against HNSCC lines", "procedure": "FIGS. 27A-27D illustrate the functional validation of B7-H3 TriKE. FIG. 27A is a graph illustrating CD107a expression in PBMCs from healthy donors incubated with Cal27 trio. FIG. 27B is a graph illustrating intracellular IFN-γ production in PBMCs from healthy donors incubated with Cal27 trio. FIG. 27C is a graph illustrating CD107a expression in PBMCs from healthy donors incubated with Cal33 trio. FIG. 27D is a graph illustrating intracellular IFN-γ production in PBMCs from healthy donors incubated with Cal33 trio.\nNK cell responses against HNSCC lines in the presence of the B7-H3 TriKE were assessed through either flow cytometry based functional assays, to evaluate NK cell degranulation and cytokine secretion, or IncuCyte imaging assays, to directly assess target killing. NK cell degranulation and IFN-gamma production of B7-H3 TriKE-treated samples were higher compared to that of control samples treated with B7-H3 single domain or IL-15 alone. […] Ongoing experiments will evaluate the functionality and efficacy of the B7-H3 TriKE in vivo.\nFrozen PBMCs (N=3) from healthy donors were incubated for 5 hours with (A-B) Cal27 trio and […] Cal33 trio (each trio consisting of a HNSCC WT line and 2 clones of HNSCC FANCA KO lines) in different treatments: no treatment or 3 nM IL-15, MOPC, B7-H3 SD and B7-H3TriKE to evaluate CD107a expression (as a marker for degranulation) and intracellular IFN-γ production. Error bars indicate standard error of mean, and statistical significance was determined as *p<0.05, **p<0.01, ***p<0.001 and ****p<0.0001"}, "RPMI-8226 cells": {"tested_on": "RPMI-8226 cells", "assay": "IncuCyte Zoom NK cell killing of RPMI-8226", "details": "E:T 4:1", "source_text": "as §1, with “8A-8D” for “7A-7B”, “8A is a graph showing the effects with effector:target (E:T) ratios of 2:1 and 4:1 on H929 cells. FIG. 8B” for “7A”, “8C is a graph showing the effects with effector:target (E:T) ratios of 2:1 and 4:1 on RPMI-8226 cells. FIG. 8D” for “7B”\nFIGS. 9A-9D illustrate the efficacy of B7-H3-TriKE with the proteasome inhibitor bortezomib (10 nM) and the immunomodulatory drug lenalidomide (5 μM). FIG. 9A is a graph showing the effect of the combination therapy on H929 cells after 48 hours. FIG. 9B is a graph showing the effect of the combination therapy on RPMI-8226 cells after 48 hours. FIG. 9C is a graph showing the effect of the combination therapy on MM1S cells after 48 hours. FIG. 9D is a graph showing the effect of the combination therapy on U266 cells after 48 hours.\nas §2\nThe efficacy of B7-H3-TriKE with the proteasome inhibitor bortezomib (10 nM) and the immunomodulatory drug lenalidomide (5 μM) was also tested. Cytotoxicity curves were compared by repeated measures ANOVA and performed in triplicate."}, "[3]": {"details": "vs B7-H3 single domain or IL-15 alone"}}, "note": "“Also recorded” adds a separate entry of the source.", "data": [{"substance": "B7-H3 TriKE: camelid nanobodies targeting CD16 and B7-H3 joined by IL-15 and two linkers; sequence table equates the name with cam1615B7-H3", "values": [{"measurement": "NK cell mediated killing of myeloma lines", "setting": "[1]; 3 nM B7-H3-TriKE, all four myeloma lines", "value": "statistically significant increase; also recorded: significantly enhanced NK cell mediated killing of myeloma cells"}, {"measurement": "TriKE concentration giving maximal killing", "setting": "[1]; escalating doses of TriKE, peripheral blood NK cells", "value": 3, "unit": "nM"}, {"measurement": "NK cell activity (CD107a, IFN-γ) against HNSCC", "setting": "[2]; 3 nM, 5 hours, Cal27 trio and Cal33 trio, healthy donor PBMCs", "value": "induced NK cell activity against HNSCC"}, {"measurement": "NK cell IFN-gamma production against HNSCC", "setting": "[2]; [3]", "value": "higher"}, {"measurement": "NK cell degranulation against HNSCC", "setting": "[2]; [3]", "value": "higher"}, {"measurement": "NK cell killing of RPMI-8226", "setting": "RPMI-8226 cells", "value": "enhanced killing"}]}]}
